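Briefly, cells in 96-well plates were exposed to five compound concentrations for 48 h, and endpoints were estimated by linear interpolation. GI50 is the concentration that inhibits growth by half.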 Active and inactive are the calls of the source. Cut-off read from the data, not from the text of the source: active = GI50 up to about 1.1 µM and inactive = higher.
Assays:
Assay in all cases: NCI-60 cell line screen, 48 h
786-0 = test system: 786-0
A498 = test system: A498
ACHN = test system: ACHN
CCRF-CEM = test system: CCRF-CEM
COLO 205 = test system: COLO 205
HCC 2998 = test system: HCC 2998
HOP-62 = test system: HOP-62
HOP-92 = test system: HOP-92
HT-29 = test system: HT-29
K562 = test system: K562
KM-20L2 = test system: KM-20L2
M14 = test system: M14
SF-539 = test system: SF-539
U-251 = test system: U-251
UACC-257 = test system: UACC-257
UACC-62 = test system: UACC-62
NCI-H460 = test system: NCI-H460
NCI/ADR-RES = test system: NCI/ADR-RES

Compound	GI50 (786-0)	GI50 (A498)	GI50 (ACHN)	GI50 (CCRF-CEM)	GI50 (COLO 205)	GI50 (HCC 2998)	GI50 (HOP-62)	GI50 (HOP-92)	GI50 (HT-29)	GI50 (K562)	GI50 (KM-20L2)	GI50 (M14)	GI50 (SF-539)	GI50 (U-251)	GI50 (UACC-257)	GI50 (UACC-62)	GI50 (NCI-H460)	GI50 (NCI/ADR-RES)
COc1ccc2c(C(=O)O)cc3ccccc3c2c1OC	15.7 µM (inactive)	18.8 µM (inactive)	16.3 µM (inactive)	24.8 µM (inactive)	22.1 µM (inactive)	21.2 µM (inactive)	69.3 µM (inactive)	21.9 µM (inactive)	21.6 µM (inactive)	24.2 µM (inactive)	22.8 µM (inactive)	16.4 µM (inactive)	23.7 µM (inactive)	40.9 µM (inactive)	17.1 µM (inactive)	15.2 µM (inactive)		
CCOC(=O)C1N(S(=O)(=O)c2ccc(C)cc2)CCC12c1ccccc1N(C(C)=O)C2c1ccc(OC)c(OC)c1 (configuration not stated)	> 100 µM (inactive)	> 100 µM (inactive)	> 100 µM (inactive)	> 100 µM (inactive)	> 100 µM (inactive)	> 100 µM (inactive)	> 100 µM (inactive)	47.8 µM (inactive)	> 100 µM (inactive)	80.7 µM (inactive)	> 100 µM (inactive)	> 100 µM (inactive)	> 100 µM (inactive)	> 100 µM (inactive)	> 100 µM (inactive)	> 100 µM (inactive)	> 100 µM (inactive)	
C=CCN1CCC23c4c5ccc(O)c4OC2C(=NN=C2CCC4(O)C6Cc7ccc(O)c8c7C4(CCN6CC=C)C2O8)CCC3(O)C1C5 (configuration not stated)	18.3 µM (inactive)	20.2 µM (inactive)	20.2 µM (inactive)	34.8 µM (inactive)	19.9 µM (inactive)	21.3 µM (inactive)	21.4 µM (inactive)	17.6 µM (inactive)	18.3 µM (inactive)	26.2 µM (inactive)	23.3 µM (inactive)	17.8 µM (inactive)	18.6 µM (inactive)	18.9 µM (inactive)	23.9 µM (inactive)	21 µM (inactive)	20.5 µM (inactive)	
CC[C@](C)(O)C(=O)O[C@H]1C(=O)O[C@@H]2C[C@H]3C(C)=C[C@H](O)[C@@H](O)[C@]3(C)[C@H]3[C@@]4(O)OC[C@]32[C@@H]1[C@@H](C)[C@H]4O		30.2 µM (inactive)		4.19 µM (inactive)	32.7 µM (inactive)	14.1 µM (inactive)	35.1 µM (inactive)	4.28 µM (inactive)	29.9 µM (inactive)	8.3 µM (inactive)	47.1 µM (inactive)		12.5 µM (inactive)	12 µM (inactive)	47.8 µM (inactive)	19.3 µM (inactive)	9.73 µM (inactive)	> 205 µM (inactive)
CSc1ccc2c(cc1=O)C(NC(=O)c1ccc(OC(C)=O)cc1)CCc1cc(O)c(O)c(O)c1-2 (configuration not stated)	31 µM (inactive)	57 µM (inactive)	66.8 µM (inactive)	3.43 µM (inactive)	16.9 µM (inactive)	74.1 µM (inactive)	26.9 µM (inactive)		19.6 µM (inactive)	1.95 µM (inactive)	37.5 µM (inactive)	16.7 µM (inactive)	19.1 µM (inactive)	20.4 µM (inactive)	19.5 µM (inactive)	18.5 µM (inactive)	23.2 µM (inactive)	
C=CC1=CC(C)C[C@]1(O)C(=O)OC (some centres not stated)	< 0.01 µM (active)	< 0.01 µM (active)	< 0.01 µM (active)	< 0.01 µM (active)	< 0.01 µM (active)	< 0.01 µM (active)	< 0.01 µM (active)	< 0.01 µM (active)	< 0.01 µM (active)	< 0.01 µM (active)	> 100 µM (inactive)	< 0.01 µM (active)	> 100 µM (inactive)	< 0.01 µM (active)	< 0.01 µM (active)	< 0.01 µM (active)	< 0.01 µM (active)	
Cc1cc(N)c2cc(NC(=O)CCCCCCCCC(=O)Nc3ccc4nc(C)cc(N)c4c3)ccc2n1	28.2 µM (inactive)	29.5 µM (inactive)	69.5 µM (inactive)	10.7 µM (inactive)	18.1 µM (inactive)	10.3 µM (inactive)	> 61.9 µM (inactive)	33.7 µM (inactive)	32.9 µM (inactive)	16.9 µM (inactive)	29.1 µM (inactive)	> 84.9 µM (inactive)	16.8 µM (inactive)	18.4 µM (inactive)	> 50.4 µM (inactive)	> 77.3 µM (inactive)	2.47 µM (inactive)	
Cc1nc2c(N)ncnc2o1	> 100 µM (inactive)	> 100 µM (inactive)	> 100 µM (inactive)	> 100 µM (inactive)	> 100 µM (inactive)	> 100 µM (inactive)	> 100 µM (inactive)	> 100 µM (inactive)	> 100 µM (inactive)	> 100 µM (inactive)	> 100 µM (inactive)	> 100 µM (inactive)	> 100 µM (inactive)	> 100 µM (inactive)	> 100 µM (inactive)	> 100 µM (inactive)	> 100 µM (inactive)	

From ChEMBL document CHEMBL1201862, “PubChem BioAssay data set” (2004)
